This is an account of results in patent publication US5508385A, “Tripeptide derivatives containing pyroglutamic acid residue” (Nitto Boseki Co., Ltd., priority 1990, dated 1996).

A word on the IC50: it is the point on the concentration scale where inhibition reaches its midpoint.

Type in all cases: biochemical
One test has as its target T1, human serum kallikrein (Homo sapiens, UniProt P03952).
T1 construct: purchased Kabi Co., Ltd
The test can be described thus: Inhibitory activity against kallikrein (synthetic substrate S-2302). Particulars: substrate S-2302, pH 8.0, 37° C. The source says:
(§1) As synthetic substrates for examining the activity of inhibitor for inhibiting digestion of the substrates with enzyme, there were used PS-994 (H-D-Lys(Tos)-Phe-Lys-CHA.2HCl; manufactured by Nitto Boseki Co., Ltd.) for plasmin, PS-915 (H-D-Phe-Pro-Arg-CHA.2HCl; manufactured by Nitto Boseki Co., Ltd.) for thrombin and trypsin; PS-2000 (Z-D-Lys(HCO)-Gly-Arg-CHA.HCl; manufactured by Nitto Boseki Co., Ltd.) for factor Xa; S-2302 (H-D-Pro-Phe-Arg-pNA; manufactured by Kabi Co., Ltd.) for kallikrein; and [drawing 2] manufactured by Nitto Boseki Co., Ltd.) for urokinase.
(§2) As plasmin, thrombin, trypsin, factor Xa, kallikrein and urokinase, there were used 0.3 CU/ml of standard plasmin from Sankyo Color Test α2 -PI Measurement Kit, 1.2 NIH U/ml of thrombin from Sankyo Color Test AT-III Measurement Kit, 2 μg/ml of trypsin of Code 3703 of Worthington, 0.25 U/ml of human factor Xa manufactured by Boehringer Mannheim, 0.12 U/ml of human serum kallikrein manufactured by Kabi Co., Ltd. and 1000 U/ml of Urokinase 60000 (60,000 U/vial) manufactured by Mochida Pharmaceutical Co., Ltd., respectively. As a stopping (color forming) solution, there was used the one from the kit of Sankyo Color Test in the case of CHA type substrate. Enzyme reactions were carried out at 37° C.
To 0.4 ml of buffer solution (150 mM sodium chloride aqueous solution containing 50 mM Tris, pH 8.0) is added 0.1 ml of an aqueous solution of the inhibitor. After the mixture is heated for 5 minutes, 0.1 ml of kallikrein solution (containing 0.5% bovine serum albumin, No. A-8022 manufactured by Sigma Co.) is added thereto followed by reaction for 5 minutes. Further 10 mM S-2302 aqueous solution (0.1 ml) is added thereto. After reacting for 5 minutes, 5 ml of 20% acetic acid aqueous solution is added to terminate the reaction. Absorbance is measured at 405 nm and IC50 is determined according to the method described above.

Another test deals with T2, human factor Xa (Homo sapiens, UniProt P00742).
T2 construct: purchased Boehringer Mannheim
The test can be described thus: Inhibitory activity against factor Xa (synthetic substrate PS-2000). Particulars: Table 3; substrate PS-2000, pH 8.5, 37° C.
From the text: as §1, §2
To 0.3 ml of buffer solution (150 mM sodium chloride aqueous solution containing 50 mM Tris, pH 8.5) is added 0.1 ml of an aqueous solution of the inhibitor having various concentrations. After the mixture is heated for 5 minutes, 0.1 ml of factor Xa solution (150 mM sodium chloride aqueous solution containing 50 mM Tris and 20 mM calcium chloride, pH 8.5) is added thereto and the mixture is reacted for 5 minutes. Further 5% polyvinylpyrrolidone solution (0.1 ml) containing 10 mM PS-2000 is added followed by reaction for 5 minutes. Thereafter, 2 ml of the stopping color forming solution is added. After allowing to stand for 10 minutes, absorbance is measured at 700 nm and IC50 is determined according to the method described above.

The target of another test is T3, urokinase (Homo sapiens, UniProt P00749).
T3 construct: purchased Mochida Pharmaceutical Co., Ltd. Urokinase 60000 (60,000 U/vial)
The test can be described thus: Inhibitory activity against urokinase (synthetic substrate MUK-34). Particulars: Table 3; substrate MUK-34, pH 8.20, 37° C.
From the text: as §1, §2
To 0.3 ml of buffer solution (150 mM sodium chloride aqueous solution containing 50 mM Tris, pH 8.20) is added 0.1 ml of an aqueous solution of the inhibitor having various concentrations. After the mixture is heated for 5 minutes, 0.1 ml of urokinase solution (150 mM sodium chloride aqueous solution containing 50 mM Tris and 0.1% BSA, pH 8.20) is added thereto and the mixture is reacted for 5 minutes. Then 10 mM MUK-34 aqueous solution (0.1 ml) is added to the mixture. After reacting for 5 minutes, 10% acetic acid aqueous solution (2.0 ml) is added to terminate the reaction. Absorbance is measured at 405 nm and IC50 is determined according to the method described above.

For a further test, the target named is thrombin (Bos taurus, UniProt P00735). Description: Inhibitory activity against thrombin (synthetic substrate PS-915). The conditions noted are these: Table 3; substrate PS-915, pH 8.5, 37° C.
From the text: as §1, §2
To 0.4 ml of buffer solution (150 mM sodium chloride aqueous solution containing 150 mM Tris, pH 8.5) is added an aqueous solution (0.1 ml) of the inhibitor having various concentrations. The mixture is heated for 5 minutes. After 0.2 ml of thrombin solution is added thereto, the mixture is reacted for 5 minutes. Then 0.1 ml of PS-915 solution (10 mM) is added followed by reaction for 5 minutes. Thereafter, 2 ml of the stopping color forming solution is added. After allowing to stand for 10 minutes, absorbance is measured at 700 nm and IC50 is determined according to the method described above.

Another test concerns the target plasmin (Homo sapiens, UniProt P00747). Description: Inhibitory activity against plasmin (synthetic substrate PS-994). Particulars: Table 3; substrate PS-994, pH 7.8, 37° C. The protocol:
As a stopping (color forming) solution, there was used the one from the kit of Sankyo Color Test in the case of CHA type substrate. Enzyme reactions were carried out at 37° C.
To 0.4 ml of buffer solution (150 mM sodium chloride aqueous solution containing 100 mM Tris, pH 7.8) is added an aqueous solution (0.1 ml) of the inhibitor having various concentrations. The mixture is heated for 5 minutes. After 0.2 ml of plasmin solution is added thereto, the mixture is reacted for 5 minutes. […] After completion of the reaction, 2.0 ml of the stopping color forming solution is added.

The next test addresses T4, trypsin (Bos taurus, UniProt P00760).
T4 construct: purchased Worthington Code 3703
T4 sequence (P00760 24-246): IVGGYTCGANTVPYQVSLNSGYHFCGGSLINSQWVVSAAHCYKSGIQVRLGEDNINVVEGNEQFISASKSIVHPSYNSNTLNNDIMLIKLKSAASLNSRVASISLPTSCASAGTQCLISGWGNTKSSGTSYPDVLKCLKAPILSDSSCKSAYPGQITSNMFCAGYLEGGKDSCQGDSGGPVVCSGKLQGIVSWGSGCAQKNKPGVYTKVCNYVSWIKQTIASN
The test can be described thus: Inhibitory activity against trypsin (synthetic substrate PS-915). The conditions noted are these: Table 3; substrate PS-915, pH 8.0, 37° C.
From the text: as §1, §2
To 0.5 ml of buffer solution (150 mM sodium chloride aqueous solution containing 150 mM Tris, pH 8.0) is added 0.1 ml of an aqueous solution of the inhibitor. After the mixture is heated for 5 minutes, 0.1 ml of trypin solution is added thereto. Further 0.1 ml of PS-915 solution (10 mM) is added followed by reaction for 5 minutes. Thereafter, 2 ml of the stopping color forming solution [containing 2.5 mg/ml of soybean trypsin inhibitor (manufactured by Sigma Co., No. T-9003)] is added. After allowing to stand for 10 minutes, absorbance is measured at 700 nm and IC50 is determined according to the method described above.

[1] abbreviates: Table 3, read-out: IC50, kallikrein (Table 3).

Structures can show the parent of a compound that is named as a salt. Where two headings read alike, the source gives them in different places. Where a SMILES comes first, the peptide text is derived from it. [ ]: non-standard residue; d: D form. pGlu = O=C1CC[C@@H](C(=O)O)N1

Sequence of plasmin (P00747 97-810): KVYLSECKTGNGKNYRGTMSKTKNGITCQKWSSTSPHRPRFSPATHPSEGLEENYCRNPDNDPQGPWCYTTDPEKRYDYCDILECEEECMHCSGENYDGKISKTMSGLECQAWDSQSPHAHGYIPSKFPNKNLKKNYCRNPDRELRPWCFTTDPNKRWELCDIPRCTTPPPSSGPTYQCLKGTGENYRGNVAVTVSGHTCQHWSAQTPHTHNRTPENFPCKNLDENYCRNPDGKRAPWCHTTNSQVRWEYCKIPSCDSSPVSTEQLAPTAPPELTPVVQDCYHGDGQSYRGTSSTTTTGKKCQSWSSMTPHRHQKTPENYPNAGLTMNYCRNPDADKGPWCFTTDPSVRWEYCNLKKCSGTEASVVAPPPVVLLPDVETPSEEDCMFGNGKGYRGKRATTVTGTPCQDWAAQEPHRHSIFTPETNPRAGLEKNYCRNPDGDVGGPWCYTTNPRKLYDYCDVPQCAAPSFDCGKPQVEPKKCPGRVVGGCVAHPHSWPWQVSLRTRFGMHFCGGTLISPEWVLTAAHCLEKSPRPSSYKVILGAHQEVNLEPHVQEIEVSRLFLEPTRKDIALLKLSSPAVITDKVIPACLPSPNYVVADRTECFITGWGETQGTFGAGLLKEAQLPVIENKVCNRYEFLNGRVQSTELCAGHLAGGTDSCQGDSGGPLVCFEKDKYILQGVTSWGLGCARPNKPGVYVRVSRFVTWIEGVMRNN
T1 sequence (P03952 391-638 limits assumed): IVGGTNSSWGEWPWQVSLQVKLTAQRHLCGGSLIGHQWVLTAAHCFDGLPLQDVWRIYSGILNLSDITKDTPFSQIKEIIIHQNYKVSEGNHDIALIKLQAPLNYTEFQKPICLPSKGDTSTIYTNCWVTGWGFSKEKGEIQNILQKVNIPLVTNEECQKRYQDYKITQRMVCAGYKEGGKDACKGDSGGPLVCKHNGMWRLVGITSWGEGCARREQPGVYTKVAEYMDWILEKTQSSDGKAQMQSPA
T1 sequence (P03952 20-390 partner limits assumed): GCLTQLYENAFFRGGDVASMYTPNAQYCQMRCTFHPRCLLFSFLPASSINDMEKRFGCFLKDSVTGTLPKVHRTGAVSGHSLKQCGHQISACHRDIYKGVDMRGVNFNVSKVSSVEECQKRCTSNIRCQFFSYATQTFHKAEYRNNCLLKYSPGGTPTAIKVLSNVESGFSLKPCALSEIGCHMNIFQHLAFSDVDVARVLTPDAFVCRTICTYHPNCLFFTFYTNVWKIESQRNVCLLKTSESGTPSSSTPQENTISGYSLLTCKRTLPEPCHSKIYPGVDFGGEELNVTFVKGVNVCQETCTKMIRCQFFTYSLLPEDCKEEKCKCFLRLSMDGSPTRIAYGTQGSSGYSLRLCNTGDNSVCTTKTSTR
T2 sequence (P00742 235-488 limits assumed): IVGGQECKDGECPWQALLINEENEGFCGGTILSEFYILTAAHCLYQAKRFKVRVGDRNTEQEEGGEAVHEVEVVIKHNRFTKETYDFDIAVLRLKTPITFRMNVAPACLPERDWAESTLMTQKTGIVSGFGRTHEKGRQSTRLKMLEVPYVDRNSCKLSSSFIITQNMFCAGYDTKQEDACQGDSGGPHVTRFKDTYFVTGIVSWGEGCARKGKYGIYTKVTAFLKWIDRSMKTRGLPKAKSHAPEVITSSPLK
T2 sequence (P00742 41-179 partner limits assumed): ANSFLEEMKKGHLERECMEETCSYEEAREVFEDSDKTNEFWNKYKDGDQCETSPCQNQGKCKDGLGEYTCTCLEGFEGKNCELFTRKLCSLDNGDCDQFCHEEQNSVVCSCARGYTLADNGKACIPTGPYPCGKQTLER

For `N=C(N)NCCC[C@@H](C=O)NC(=O)[C@@H]1CCCN1C(=O)[C@@H]1CCC(=O)N1` [Example 13, L-pyroglutamyl-L-prolyl-L-argininal 1/2 sulfate] ([pGlu]-Pro-Arg-aldehyde), the half-inhibitory concentration (IC50) on human serum kallikrein (setting [1]) amounted to 5.5 µM; against human factor Xa, 13 µM; against urokinase it was 0.68 µM; against thrombin, 22 µM; against plasmin, 1.4 µM; against trypsin it was 0.02 µM.

Turning to `CC(=O)N[C@@H](CC(C)C)C(=O)N[C@@H](CC(C)C)C(=O)N[C@H](C=O)CCCNC(=N)N` [Example A1, acetyl-L-leucyl-L-leucyl-L-argininal, reference compound], the half-inhibitory concentration (IC50) at human serum kallikrein (Table 2, read-out: IC50 of Known Compound, Kallikrein) was found to be 6.9 µM.

With “N-benzyloxycarbonyl-D-pyroglutamyl-L-leucyl-L-argininal hydrochloride [Example 7]”, the concentration for half-maximal inhibition (IC50) is 3.1 µM on human serum kallikrein (setting [1]); 4.7 µM at human factor Xa; 30 µM against urokinase; more than 100 µM against thrombin; 2.8 µM on plasmin; 0.43 µM against trypsin.

For the compound “N-benzyloxycarbonyl-D-pyroglutamyl-L-phenylalanyl-L-argininal hydrochloride [Example 9]”, the IC50 was 0.87 µM on human serum kallikrein (setting [1]); 0.72 µM against human factor Xa; 40 µM against urokinase; more than 100 µM against thrombin; 1.3 µM against plasmin; 1 µM at trypsin.

As to “N-benzyloxycarbonyl-D-pyroglutamyl-L-prolyl-L-argininal hydrochloride [Example 6]”, the concentration for half-maximal inhibition (IC50) at human serum kallikrein (setting [1]) turned out to be 13 µM; at human factor Xa, 5 µM; on urokinase it was 1.1 µM; at thrombin, 22 µM; on plasmin, 4.6 µM; against trypsin it was 0.062 µM.

For “N-benzyloxycarbonyl-L-pyroglutamyl-L-alanyl-L-argininal hydrochloride [Example 2]”, the IC50 on human serum kallikrein (setting [1]) was 7.8 µM; against human factor Xa, 0.52 µM; against urokinase, 7.6 µM; at thrombin it was 5.9 µM; at plasmin, 7.2 µM; at trypsin it was 0.0074 µM.

As for “N-benzyloxycarbonyl-L-pyroglutamyl-L-phenylalanyl-L-argininal hydrochloride [Example 3]”, the IC50 came to 0.42 µM on human serum kallikrein (setting [1]); 0.59 µM against human factor Xa; 76 µM against urokinase; 35 µM against thrombin; 1.1 µM at plasmin; 0.069 µM against trypsin.

Regarding “N-benzyloxycarbonyl-L-pyroglutamyl-L-prolyl-L-argininal hydrochloride [Example 1]”, the IC50 on human serum kallikrein (setting [1]) was found to be 5 µM; at human factor Xa, 0.36 µM; at urokinase, 22 µM; at thrombin, 0.056 µM; at plasmin, 3.2 µM; at trypsin, 0.0062 µM.
